According to patent US20230310464A1, “USE OF C[…] THE TREATMENT OF SEIZURES ASSOCIATED WITH RARE […] SYNDROMES RELATED TO BRAIN INJURY” (GW Research Limited, priority 2020, published 2023):

Tested on: seizures associated with hypoxic ischaemic encephalopathy (HIE) or anoxia at birth
Assay: Open label, expanded-access program: seizure frequency recorded by caregivers in a diary, relative to baseline
Assay type: in vivo, human
Parameters: reduction in tonic seizures over the treatment period / reduction in spasms over the treatment period / reduction in absence seizures over the treatment period / reduction in tonic-clonic seizures over the treatment period / reduction in myoclonic seizures over the treatment period: concentration or dose not given beside the values; Seizure frequency, Tonic / Seizure frequency, Spasm / Seizure frequency, Absence / Seizure frequency, Tonic-clonic / Seizure frequency, Focal with impairment / Seizure frequency, Atonic / Seizure frequency, Focal without impairment / Seizure frequency, Focal secondary generalisation / Seizure frequency, Myoclonic: unit not given here
Experimental: Subjects were required to be on one or more AEDs at stable doses for a minimum of two weeks prior to baseline and to have stable vagus nerve stimulation (VNS) settings and ketogenic diet ratios for a minimum of four weeks prior to baseline.
Dose was then increased weekly by 5 mg/kg/day to a goal of 20 to 25 mg/kg/day.
Modifications were made to concomitant AEDs as per clinical indication.
Seizure frequency, intensity, and duration were recorded by caregivers in a diary during a baseline period of at least 28 days. Changes in seizure frequency relative to baseline were calculated after at least 2 weeks and at defined timepoints of treatment.
Patients may be defined as responders if they had more than 50% reduction in seizure frequency compared to baseline. The percent change in seizure frequency was calculated as follows: […]
The percent change of seizure frequency may be calculated for any time interval where seizure number has been recorded. For the purpose of this example the percent change of seizure frequency for the end of the treatment period was calculated as follows: […]

[1] = Patient 1, 2 weeks, CBD 8.3 mg/kg/day
[2] = Patient 1, 4 weeks, CBD 20.8 mg/kg/day
[3] = Patient 1, 8 weeks, CBD 25.2 mg/kg/day
[4] = Patient 1, 16 weeks, CBD 23.4 mg/kg/day
[5] = Patient 1, 24 weeks, CBD 22.9 mg/kg/day
[6] = Patient 1, 36 weeks, CBD 25.7 mg/kg/day
[7] = Patient 1, 48 weeks, CBD 21.8 mg/kg/day
[8] = Patient 1, treated for 48 weeks, vs baseline
[9] = Patient 2, 4 weeks, CBD 20.0 mg/kg/day
[10] = Patient 2, 8 weeks, CBD 25.0 mg/kg/day
[11] = Patient 2, 16 weeks, CBD 25.0 mg/kg/day
[12] = Patient 2, 24 weeks, CBD 25.0 mg/kg/day
[13] = Patient 2, 36 weeks, CBD 25.0 mg/kg/day
[14] = Patient 2, 48 weeks, CBD 25.0 mg/kg/day
[15] = Patient 2, 60 weeks, CBD 25.0 mg/kg/day
[16] = Patient 2, 72 weeks, CBD 25.0 mg/kg/day
[17] = Patient 2, 84 weeks, CBD 25.0 mg/kg/day
[18] = Patient 2, treated for 84 weeks, vs baseline
[19] = Patient 3, 4 weeks, CBD 5.0 mg/kg/day
[20] = Patient 3, 8 weeks, CBD 20.0 mg/kg/day
[21] = Patient 3, 12 weeks, CBD 25.0 mg/kg/day
[22] = Patient 3, 16 weeks, CBD 25.0 mg/kg/day
[23] = Patient 3, 24 weeks, CBD 30.0 mg/kg/day
[24] = Patient 3, 36 weeks, CBD 40.0 mg/kg/day
[25] = Patient 3, 48 weeks, CBD 50.0 mg/kg/day
[26] = Patient 3, 72 weeks, CBD 50.0 mg/kg/day
[27] = Patient 3, 84 weeks, CBD 50.0 mg/kg/day
[28] = Patient 3, 96 weeks, CBD 50.0 mg/kg/day
[29] = Patient 3, 108 weeks, CBD 50.0 mg/kg/day
[30] = Patient 3, 120 weeks, CBD 50.0 mg/kg/day
[31] = Patient 3, 132 weeks, CBD 50.0 mg/kg/day
[32] = Patient 4, 4 weeks, CBD 5.0 mg/kg/day
[33] = Patient 4, 8 weeks, CBD 5.0 mg/kg/day
[34] = Patient 4, 12 weeks, CBD 10.0 mg/kg/day
[35] = Patient 4, 24 weeks, CBD 15.0 mg/kg/day
[36] = Patient 4, 36 weeks, CBD 15.0 mg/kg/day

C=C(C)[C@@H]1CCC(C)=C[C@H]1c1c(O)cc(CCCCC)cc1O [CBD, cannabidiol]
Seizure frequency, Spasm [1]: 108.0 | Seizure frequency, Tonic [1]: 1044.0 | Seizure frequency, Spasm [2]: 102.8 | Seizure frequency, Tonic [2]: 904.0 | Seizure frequency, Spasm [3]: 50.8 | Seizure frequency, Tonic [3]: 770.0 | Seizure frequency, Spasm [4]: 78.0 | Seizure frequency, Tonic [4]: 764.8 | Seizure frequency, Spasm [5]: 48.0 | Seizure frequency, Tonic [5]: 917.2 | Seizure frequency, Spasm [6]: 51.2 | Seizure frequency, Tonic [6]: 634.0 | Seizure frequency, Spasm [7]: 69.2 | Seizure frequency, Tonic [7]: 424.8 | reduction in spasms over the treatment period [8]: 44.2% | reduction in tonic seizures over the treatment period [8]: 59.8% | Seizure frequency, Absence [9]: 52.0 | Seizure frequency, Spasm [9]: 440.0 | Seizure frequency, Absence [10]: 52.0 | Seizure frequency, Spasm [10]: 600.0 | Seizure frequency, Absence [11]: 12.0 | Seizure frequency, Spasm [11]: 632.0 | Seizure frequency, Absence [12]: 24.0 | Seizure frequency, Spasm [12]: 580.0 | Seizure frequency, Absence [13]: 0 | Seizure frequency, Spasm [13]: 560.0 | Seizure frequency, Absence [14]: 0 | Seizure frequency, Spasm [14]: 490.0 | Seizure frequency, Absence [15]: 0 | Seizure frequency, Spasm [15]: 196.0 | Seizure frequency, Absence [16]: 0 | Seizure frequency, Spasm [16]: 300.0 | Seizure frequency, Absence [17]: 0 | Seizure frequency, Spasm [17]: 340.0 | reduction in absence seizures over the treatment period [18]: 100% | reduction in spasms over the treatment period [18]: 41.4% | Seizure frequency, Focal with impairment [19]: 43.0 | Seizure frequency, Tonic [19]: 193.0 | Seizure frequency, Tonic-clonic [19]: 2.0 | Seizure frequency, Focal with impairment [20]: 132.0 | Seizure frequency, Tonic [20]: 132.0 | Seizure frequency, Tonic-clonic [20]: 0 | Seizure frequency, Focal with impairment [21]: 38.0 | Seizure frequency, Tonic [21]: 123.0 | Seizure frequency, Tonic-clonic [21]: 0 | Seizure frequency, Focal with impairment [22]: 46.0 | Seizure frequency, Tonic [22]: 120.0 | Seizure frequency, Tonic-clonic [22]: 6.0 | Seizure frequency, Focal with impairment [23]: 51.2 | Seizure frequency, Tonic [23]: 122.0 | Seizure frequency, Tonic-clonic [23]: 4.8 | Seizure frequency, Tonic [24]: 124.8 | Seizure frequency, Tonic-clonic [24]: 20.0 | Seizure frequency, Focal with impairment [25]: 38.8 | Seizure frequency, Tonic [25]: 136.0 | Seizure frequency, Tonic-clonic [25]: 11.2 | Seizure frequency, Focal with impairment [26]: 53.0 | Seizure frequency, Tonic [26]: 94.7 | Seizure frequency, Tonic-clonic [26]: 4.0 | Seizure frequency, Focal with impairment [27]: 53.0 | Seizure frequency, Tonic [27]: 72.0 | Seizure frequency, Tonic-clonic [27]: 5.7 | Seizure frequency, Focal with impairment [28]: 46.3 | Seizure frequency, Tonic [28]: 70.0 | Seizure frequency, Tonic-clonic [28]: 11.6 | Seizure frequency, Focal with impairment [29]: 46.4 | Seizure frequency, Tonic [29]: 35.0 | Seizure frequency, Tonic-clonic [29]: 10.4 | Seizure frequency, Focal with impairment [30]: 62.8 | Seizure frequency, Tonic [30]: 46.8 | Seizure frequency, Tonic-clonic [30]: 9.8 | Seizure frequency, Focal with impairment [31]: 77.2 | Seizure frequency, Tonic [31]: 54.4 | Seizure frequency, Tonic-clonic [31]: 12.0 | Seizure frequency, Atonic [32]: 0 | Seizure frequency, Tonic [32]: 4.0 | Seizure frequency, Tonic-clonic [32]: 13.0 | Seizure frequency, Atonic [33]: 0 | Seizure frequency, Tonic [33]: 3.0 | Seizure frequency, Tonic-clonic [33]: 18.0 | Seizure frequency, Atonic [34]: 0 | Seizure frequency, Tonic [34]: 0 | Seizure frequency, Tonic-clonic [34]: 10.0 | Seizure frequency, Atonic [35]: 6.0 | Seizure frequency, Tonic [35]: 0 | Seizure frequency, Tonic-clonic [35]: 0.6 | Seizure frequency, Atonic [36]: 1.7 | Seizure frequency, Tonic [36]: 0
